Experimental data taken from US20200085789A1, “USE OF A PROTEASOME INHIBITOR FOR THE TREATMENT OF CENTRAL NERVOUS SYSTEM (CNS) CANCERS” (Celgene International II Sàrl, priority 2017, published 2020).

Assay: Adverse events and dose-limiting toxicity (NCI-CTCAE v 4.03), MRZ ± BEV in recurrent grade IV malignant glioma patients
Assay type: in vivo, human
From the text: An adverse event (AE) is any noxious, unintended, or untoward medical occurrence that may appear or worsen in a subject during the course of a study. […] Any worsening (i.e., any clinically significant adverse change in the frequency or intensity of a pre-existing condition) should be considered an AE.
The severity/intensity of AEs will be graded based upon the subject's symptoms according to the current active minor version of the Common Terminology Criteria for Adverse Events ( ).

[1] = treated with MRZ 0.8 mg/m^2 + BEV (N = 27)

C[C@@]12OC(=O)[C@]1([C@@H](O)[C@@H]1C=CCCC1)NC(=O)[C@@H]2CCCl [MRZ, marizomib]
Fall: patients, worst Grade 2 (Part 1 N = 36, Part 2 N = 30): 1
Fatigue: patients, Total (Part 1 N = 36, Part 2 N = 30): 20
Fatigue: patients, worst Grade 1 (Part 1 N = 36, Part 2 N = 30): 8
Fatigue: patients, worst Grade 2 (Part 1 N = 36, Part 2 N = 30): 11
Fatigue: patients, worst Grade 3 (Part 1 N = 36, Part 2 N = 30): 2
Hallucination: patients, Total (Part 1 N = 36, Part 2 N = 30): 12
Hallucination: patients, worst Grade 1 (Part 1 N = 36, Part 2 N = 30): 6
Hallucination: patients, worst Grade 2 (Part 1 N = 36, Part 2 N = 30): 4
Hallucination: patients, worst Grade 3 (Part 1 N = 36, Part 2 N = 30): 1
Hallucination: patients, worst Grade 4 (Part 1 N = 36, Part 2 N = 30): 1
Headache: patients, Total (Part 1 N = 36, Part 2 N = 30): 14
Headache: patients, worst Grade 1 (Part 1 N = 36, Part 2 N = 30): 10
Headache: patients, worst Grade 2 (Part 1 N = 36, Part 2 N = 30): 3
Headache: patients, worst Grade 3 (Part 1 N = 36, Part 2 N = 30): 1
Hyperglycemia: patients, Total (Part 1 N = 36, Part 2 N = 30): 7
Hyperglycemia: patients, worst Grade 1 (Part 1 N = 36, Part 2 N = 30): 2
Hyperglycemia: patients, worst Grade 2 (Part 1 N = 36, Part 2 N = 30): 4
Hyperglycemia: patients, worst Grade 3 (Part 1 N = 36, Part 2 N = 30): 1−
Hypertension: patients, Total (Part 1 N = 36, Part 2 N = 30): 4
Hypertension: patients, worst Grade 1 (Part 1 N = 36, Part 2 N = 30): 1
Hypertension: patients, worst Grade 2 (Part 1 N = 36, Part 2 N = 30): 1
Hypertension: patients, worst Grade 3 (Part 1 N = 36, Part 2 N = 30): 2
Hypokalemia: patients, Total (Part 1 N = 36, Part 2 N = 30): 9
Hypokalemia: patients, worst Grade 1 (Part 1 N = 36, Part 2 N = 30): 7
Hypokalemia: patients, worst Grade 2 (Part 1 N = 36, Part 2 N = 30): 2
Infusion Site Reaction (includes edema, pain, phlebitis, redness): patients, Total (Part 1 N = 36, Part 2 N = 30): 5
Infusion Site Reaction: patients, worst Grade 1 (Part 1 N = 36, Part 2 N = 30): 3
Infusion Site Reaction: patients, worst Grade 2 (Part 1 N = 36, Part 2 N = 30): 2
Insomnia: patients, Total (Part 1 N = 36, Part 2 N = 30): 1.
Insomnia: patients, worst Grade 1 (Part 1 N = 36, Part 2 N = 30): 7
Insomnia: patients, worst Grade 2 (Part 1 N = 36, Part 2 N = 30): 5
Insomnia: patients, worst Grade 3 (Part 1 N = 36, Part 2 N = 30): 1
Nausea: patients, Total (Part 1 N = 36, Part 2 N = 30): 11
Nausea: patients, worst Grade 1 (Part 1 N = 36, Part 2 N = 30): 7
Nausea: patients, worst Grade 2 (Part 1 N = 36, Part 2 N = 30): 2
Nausea: patients, worst Grade 3 (Part 1 N = 36, Part 2 N = 30): 2
Platelet Count Decreased: patients, Total (Part 1 N = 36, Part 2 N = 30): 7
Platelet Count Decreased: patients, worst Grade 1 (Part 1 N = 36, Part 2 N = 30): 7
Vomiting: patients, Total (Part 1 N = 36, Part 2 N = 30): 10
Vomiting: patients, worst Grade 1 (Part 1 N = 36, Part 2 N = 30): 8
Vomiting: patients, worst Grade 3 (Part 1 N = 36, Part 2 N = 30): 2
marizomib-related adverse events ≥3: confusional state (Phase 1): 3
marizomib-related adverse events ≥3: headache (Phase 1): 3
patients with marizomib-related serious adverse events (Phase 1): Four
Grade 4 serious adverse event (hallucination, MRZ-related) (Phase 2 monotherapy): one
treatment-related Grade ≥3 AEs in two or more patients (Phase 2 monotherapy): fatigue, hallucination, lethargy
Grade 4 serious adverse event (hallucination, MRZ-related) (Phase 2 monotherapy, listed as marizomib): One
Anaemia: # Patients, AE related to the labelled drug(s) (pts on MRZ+BEV): 6
Anxiety: # Patients, AE related to the labelled drug(s) (pts on MRZ+BEV): 0
Aphasia: # Patients, AE related to the labelled drug(s) (pts on MRZ+BEV): 0
Appendicitis Perforated: # Patients, AE related to the labelled drug(s) (pts on MRZ+BEV): 0
Asthenia: # Patients, AE related to the labelled drug(s) (pts on MRZ+BEV): 0
Ataxia: # Patients, AE related to the labelled drug(s) (pts on MRZ+BEV): 6
Confusional State: # Patients, AE related to the labelled drug(s) (pts on MRZ+BEV): 6
Constipation: # Patients, AE related to the labelled drug(s) (pts on MRZ+BEV): 4
Convulsion: # Patients, AE related to the labelled drug(s) (pts on MRZ+BEV): 0
Delusion: # Patients, AE related to the labelled drug(s) (pts on MRZ+BEV): 1
Depressed Level of Consciousness: # Patients, AE related to the labelled drug(s) (pts on MRZ+BEV): 0
Diarrhoea: # Patients, AE related to the labelled drug(s) (pts on MRZ+BEV): 9
Dizziness: # Patients, AE related to the labelled drug(s) (pts on MRZ+BEV): 8
Dysarthria: # Patients, AE related to the labelled drug(s) (pts on MRZ+BEV): 1
Dysphagia: # Patients, AE related to the labelled drug(s) (pts on MRZ+BEV): 0
Dysphonia: # Patients, AE related to the labelled drug(s) (pts on MRZ+BEV): 0
Dyspnoea: # Patients, AE related to the labelled drug(s) (pts on MRZ+BEV): 0
Ear Infection: # Patients, AE related to the labelled drug(s) (pts on MRZ+BEV): 0
Embolism: # Patients, AE related to the labelled drug(s) (pts on MRZ+BEV): 0
Epistaxis: # Patients, AE related to the labelled drug(s) (pts on MRZ+BEV): 0
Falls: # Patients, AE related to the labelled drug(s) (pts on MRZ+BEV): 3
Fatigue: # Patients, AE related to the labelled drug(s) (pts on MRZ+BEV): 1
Fracture of Femur: # Patients, AE related to the labelled drug(s) (pts on MRZ+BEV): 0
Haemorrhage Intracranial: # Patients, AE related to the labelled drug(s) (pts on MRZ+BEV): 0
Hallucination: # Patients, AE related to the labelled drug(s) (pts on MRZ+BEV): 11
Headache: # Patients, AE related to the labelled drug(s) (pts on MRZ+BEV): 5
Hemiparesis: # Patients, AE related to the labelled drug(s) (pts on MRZ+BEV): 0
Hyperglycemia: # Patients, AE related to the labelled drug(s) (pts on MRZ+BEV): 0
Hypertension: # Patients, AE related to the labelled drug(s) (pts on MRZ+BEV): 0
Hypokalemia: # Patients, AE related to the labelled drug(s) (pts on MRZ+BEV): 0
Hyponatremia: # Patients, AE related to the labelled drug(s) (pts on MRZ+BEV): 1
Hypotension: # Patients, AE related to the labelled drug(s) (pts on MRZ+BEV): 0
Infusion Site Pain: # Patients, AE related to the labelled drug(s) (pts on MRZ+BEV): 6
Insomnia: # Patients, AE related to the labelled drug(s) (pts on MRZ+BEV): 1
Lymphocyte Count Decreased: # Patients, AE related to the labelled drug(s) (pts on MRZ+BEV): 0
Muscular Weakness: # Patients, AE related to the labelled drug(s) (pts on MRZ+BEV): 2
Nausea: # Patients, AE related to the labelled drug(s) (pts on MRZ+BEV): 19
Optic Nerve Disorder: # Patients, AE related to the labelled drug(s) (pts on MRZ+BEV): 0
Pyramidal Tract Syndrome: # Patients, AE related to the labelled drug(s) (pts on MRZ+BEV): 0
Tumor Metastasis: # Patients, AE related to the labelled drug(s) (pts on MRZ+BEV): 0
Vision Blurred: # Patients, AE related to the labelled drug(s) (pts on MRZ+BEV): 3
Vomiting: # Patients, AE related to the labelled drug(s) (pts on MRZ+BEV): 12
time of onset of CNS adverse events (range): from the day of treatment to six days post-marizomib infusion
Anaemia related to the labelled drug(s) [1]: (18.5%)
Anaemia related to the labelled drug(s), patients [1]: 5
Ataxia related to the labelled drug(s) [1]: (25.9%)
Ataxia related to the labelled drug(s), patients [1]: 7
Confusional state related to the labelled drug(s) [1]: (25.9%)
Confusional state related to the labelled drug(s), patients [1]: 7
Constipation related to the labelled drug(s) [1]: (18.5%)
Constipation related to the labelled drug(s), patients [1]: 5
Diarrhoea related to the labelled drug(s) [1]: (29.6%)
Diarrhoea related to the labelled drug(s), patients [1]: 8
Dizziness related to the labelled drug(s) [1]: (29.6%)
Dizziness related to the labelled drug(s), patients [1]: 8
Dysphonia related to the labelled drug(s) [1]: (3.7%)
Dysphonia related to the labelled drug(s), patients [1]: 1
Epistaxis related to the labelled drug(s) [1]: (0.0%)
Epistaxis related to the labelled drug(s), patients [1]: 0
Fall related to the labelled drug(s) [1]: (11.1%)
Fall related to the labelled drug(s), patients [1]: 3
Fatigue related to the labelled drug(s) [1]: (70.4%)
Fatigue related to the labelled drug(s), patients [1]: 19
Hallucination related to the labelled drug(s) [1]: (44.4%)
Hallucination related to the labelled drug(s), patients [1]: 12
Headache related to the labelled drug(s) [1]: (44.4%)
Headache related to the labelled drug(s), patients [1]: 12
Hypertension related to the labelled drug(s) [1]: (3.7%)
Hypertension related to the labelled drug(s), patients [1]: 1
Infusion site pain related to the labelled drug(s) [1]: (14.8%)
Infusion site pain related to the labelled drug(s), patients [1]: 4
Muscular weakness related to the labelled drug(s) [1]: (11.1%)
Muscular weakness related to the labelled drug(s), patients [1]: 3
Nausea related to the labelled drug(s) [1]: (63.0%)
Nausea related to the labelled drug(s), patients [1]: 17
Platelet count decreased related to the labelled drug(s) [1]: (7.4%)
Platelet count decreased related to the labelled drug(s), patients [1]: 2
Stomatitis related to the labelled drug(s) [1]: (11.1%)
Stomatitis related to the labelled drug(s), patients [1]: 3
Upper-airway cough syndrome related to the labelled drug(s) [1]: (0.0%)
Upper-airway cough syndrome related to the labelled drug(s), patients [1]: 0
Vomiting related to the labelled drug(s) [1]: (55.6%)
Vomiting related to the labelled drug(s), patients [1]: 15
